Assays:
FXa WT = biological target: T1, FXa WT (Homo sapiens, UniProt P00742); test: FVIIIa generation by FXa WT in stable complex with TF-iFVIIa-NAPc2; type: biochemical; details: 1 nM rivaroxaban
T1 construct: TF-associated FVIIa has converted FX into FXa active protease

thrombin generation (TG) = type: biochemical, human
Experimental: TG in PRP or reconstituted PRP was evaluated as known to those skilled in the art. Native PRP was prepared from blood collected into final 12.9 mM trisodium citrate by centrifugation at 250 g for 10 min at 25° C. The platelet count was adjusted to 180×10^3/μl by dilution with homologous PPP obtained by centrifuging PRP for 10 min at 1,500 g. CTI was added at 30-50 μg/ml depending on calibrated potency as assessed by FXIIa inhibition. Reconstituted PRP was prepared with washed platelets prepared from normal PRP by adding ⅕th volume of acid citrate-dextrose (71 mM citric acid, 85 mM trisodium citrate, and 111 mM dextrose, pH 4.5) and 5 U/ml apyrase; following centrifugation at 1,500 g for 10 minutes at 25° C., the platelet pellet was resuspended into PPP lacking FVII (George King Bio-Medical) or FIX (Haematologic Technologies) to give a final platelet count of 180·103/μl PRP was mixed with varying concentrations of rTF and/or 20 pM FIXa in 96-well microtiter plates. The reaction was started by adding 18 mM CaCl2 with 360 μM of the thrombin substrate benzyloxycarbonyl-glycyl-glycyl-L-arginine coupled to the fluorogenic group 7-amido-4-methylcoumarin (Gly-Gly-Arg-AMC; Bachem Americas, Torrance, Calif.). Fluorescence was measured continuously at 37° C. for up to 40 min in a spectrofluorometer (355/460 nm excitation/emission). The rate of fluorescence intensity increase as a function of time (dF/dt) was calculated with Turbo Delphi 2006 (Borland Software Corporation, Austin, Tex.) and converted to thrombin-equivalent concentration (nM) using a calibration curve. The endogenous thrombin potential (ETP) of samples, i.e. total generated thrombin activity, was determined from the area under the TG curve. When specified, TG was measured with a discontinuous 2-stage assay with a detection limit of 5 pM. For this, TG was induced by 0.15 pM rTF and 18 mM CaCl2 in reconstituted FVII-deficient PRP including 30 μg/ml CTI with 400 pM WT FVIIa or iFVIIa without or with 20 pM FIXa. After incubation for up to 11 min at 37° C., reactions were terminated by adding 20 mM EDTA and generated thrombin was measured using the highly sensitive thrombin substrate H-D-CHA-Ala-Arg-AMC.2AcOH (Pefafluor TH, Pentapharm, Basel, Switzerland) at 50 μM concentration. In other experiments, TG was induced by TFiFVIIa-FXa-TFPI or TF-iFVIIa-FXa-NAPc2. These stable complexes were pre-formed by incubating 5 nM FXa, 10 nM TF, 10 nM iFVIIa and 40 nM TFPI or NAPc2 in the presence of 2.5 mM CaCl2 for 2 min at 37° C. Complexes were added into FVII-deficient PRP, followed by incubation for 8 min at 37° C.
PRP was prepared from blood collected into trisodium citrate (final concentration 0.0129 M) by centrifugation for at 250 g for 10 min at 25° C.; the platelet count was adjusted at 180.103 per μl by diluting with homologous platelet-poor plasma (PPP) obtained by centrifuging PRP for an additional 10 min at 1,500 g. When indicated, CTI was added at 30 to 50 μg/ml depending on calibrated potency measured by FXIIa inhibition. Reconstituted PRP was prepared by adding normal washed platelets into PPP (without or with CTI) lacking FVII, FVIII (both from George King Bio-Medical, Overland Park, Kans.) or FIX (Haematologic Technologies). […] generation in PRP was measured as described by Hemker et al. 53 μl of PRP was mixed in 96-well microtiter plates with 15 μl of a solution containing rTF and/or one of the intrinsic coagulation pathway proteases—FXIIa, FXIa or FIXa—to achieve the indicated final concentrations. Antibodies or inhibitors were also added at this point at the concentration indicated for each specific case. The reaction was started by adding between 15 and 20 μl of 100 mM CaCl2 and 2 mM fluorogenic substrate, benzyloxycarbonyl-glycyl-glycyl-L-arginine-7-amido-4-methylcoumarin (Gly-Gly-Arg-AMC; Bachem Americas, Torrance, Calif.).

T1 sequence (P00742 41-179 limits assumed): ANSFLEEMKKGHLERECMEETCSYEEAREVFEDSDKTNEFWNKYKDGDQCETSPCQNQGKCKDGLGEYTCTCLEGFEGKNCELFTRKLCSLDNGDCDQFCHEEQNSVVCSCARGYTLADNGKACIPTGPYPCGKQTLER
T1 sequence (P00742 235-488 limits assumed): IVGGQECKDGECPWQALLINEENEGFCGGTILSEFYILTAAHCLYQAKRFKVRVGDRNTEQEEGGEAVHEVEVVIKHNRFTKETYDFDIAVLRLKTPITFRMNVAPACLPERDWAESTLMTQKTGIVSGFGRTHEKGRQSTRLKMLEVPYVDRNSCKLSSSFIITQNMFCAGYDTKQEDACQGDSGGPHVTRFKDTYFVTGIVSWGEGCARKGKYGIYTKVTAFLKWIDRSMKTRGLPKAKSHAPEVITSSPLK

## O=C(NC[C@H]1CN(c2ccc(N3CCOCC3=O)cc2)C(=O)O1)c1ccc(Cl)s1 [Rivaroxaban]
FXa WT
  effect on FVIII activation by FXa WT: almost completely inhibited
Thrombin generation (TG); low rivaroxaban concentrations
  inhibition of TG in the presence of MoAb 12C7: more pronounced inhibition
Thrombin generation (TG); recalcified PRP containing CTI
  difference in dose response between rivaroxaban and apixaban: ~3 fold
  effect on TF-induced thrombin generation: inhibited

Source: patent US11136370B2, “Compositions and methods for thrombin generation assay” (The Scripps Research Institute, priority 2016, dated 2021)
